What was measured:
bamyardgrass = experiment: Test B flood test barnyardgrass; assay type: in vivo, Echinochloa crus-galli
Outline: (§1)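 Read-out is a visual response score from 0 (no effect) to 10 (complete control), assigned by comparison with untreated controls. Treatment was applied at the 2-leaf stage, and plants stayed in the greenhouse for twelve to sixteen days before scoring.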

velvetleaf = experiment: Test B pre/postemergence velvetleaf; assay type: in vivo, Abutilon theophrasti; details: for Velvetleaf plant response rating: scale of 0 to 10 where 0 is no effect and 10 is complete control
Outline: (§2)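 Test chemicals in a non-phytotoxic solvent mixture with surfactant were sprayed preemergence onto planted seeds and postemergence onto plants 2 to 18 cm tall (1- to 4-leaf stage). After twelve to sixteen days in a greenhouse, injury was visually rated against untreated controls from 0 (no effect) to 10 (complete control).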

wheat = experiment: Test B pre/postemergence wheat; assay type: in vivo, Triticum aestivum; details: for Wheat plant response rating: scale of 0 to 10 where 0 is no effect and 10 is complete control
Outline: as §2

purple nutsedge = experiment: Test B pre/postemergence purple nutsedge; assay type: in vivo, Cyperus rotundus; details: for Nutsedge plant response rating: scale of 0 to 10 where 0 is no effect and 10 is complete control
Outline: as §2

blackgrass = experiment: Test B pre/postemergence blackgrass; assay type: in vivo, Alopecurus myosuroides
Outline: as §2

rape = experiment: Test B pre/postemergence rape; assay type: in vivo, Brassica napus; details: for Rape plant response rating: scale of 0 to 10 where 0 is no effect and 10 is complete control
Outline: as §2

sugar beet = experiment: Test B pre/postemergence sugar beet; assay type: in vivo, Beta vulgaris; details: for Sugarbeets plant response rating: scale of 0 to 10 where 0 is no effect and 10 is complete control
Outline: as §2

soybean = experiment: Test B pre/postemergence soybean; assay type: in vivo, Glycine max; details: for Soybean plant response rating: scale of 0 to 10 where 0 is no effect and 10 is complete control
Outline: as §2

pigweed = experiment: Test B pre/postemergence pigweed; assay type: in vivo, Amaranthus retroflexus; details: for Redroot pigweed plant response rating: scale of 0 to 10 where 0 is no effect and 10 is complete control
Outline: as §2

cocklebur = experiment: Test B pre/postemergence cocklebur; assay type: in vivo, Xanthium strumarium; details: for Cocklebur plant response rating: scale of 0 to 10 where 0 is no effect and 10 is complete control
Outline: as §2

bedstraw = experiment: Test B pre/postemergence bedstraw; assay type: in vivo, Galium aparine; details: for Plant response rating, Bedstraw: Postemergence
Outline: as §2

wild oat = experiment: Test B pre/postemergence wild oat; assay type: in vivo, Avena fatua; details: for Wild oats plant response rating: scale of 0 to 10 where 0 is no effect and 10 is complete control
Outline: as §2

smallflower flatsedge = experiment: Test B flood test smallflower flatsedge; assay type: in vivo, Cyperus difformis
Outline: as §1

corn = experiment: Test B pre/postemergence corn; assay type: in vivo, Zea mays; details: for Corn plant response rating: scale of 0 to 10 where 0 is no effect and 10 is complete control
Outline: as §2

crabgrass = experiment: Test B pre/postemergence crabgrass; assay type: in vivo, Digitaria sanguinalis; details: for Crabgrass plant response rating: scale of 0 to 10 where 0 is no effect and 10 is complete control
Outline: as §2

surinam grass = experiment: Test B pre/postemergence surinam grass; assay type: in vivo, Brachiaria decumbens
Outline: as §2

[1] = Postemergence (flood test), Rate 125 g/ha, scale 0 to 10, 0 is no effect, 10 is complete control
[2] = Rate 62 g/ha, Postemergence (flood test species), scale of 0 to 10 where 0 is no effect and 10 is complete control
[3] = Rate 500 g/ha, listed under Postemergence (flood test species), scale 0 to 10, 0 no effect, 10 complete control
[4] = Postemergence, Rate 125 g/ha, scale 0 to 10, 0 is no effect, 10 is complete control
[5] = Preemergence, Rate 62 g/ha, scale 0 to 10 (0 no effect, 10 complete control)
[6] = Rate 500 g/ha, Postemergence, scale 0 to 10, 0 no effect, 10 complete control
[7] = Preemergence, Rate 250 g/ha, scale of 0 to 10 where 0 is no effect and 10 is complete control
[8] = Preemergence, Rate 500 g/ha, scale of 0 to 10 where 0 is no effect and 10 is complete control
[9] = Rate 62 g/ha, Postemergence, scale of 0 to 10 where 0 is no effect and 10 is complete control
[10] = Rate 250 g/ha, Postemergence, scale of 0 to 10 where 0 is no effect and 10 is complete control

## CC(C)N(C(=O)n1oc(=O)n(C2CCC2)c1=O)c1ccccc1 [Compound 348]
bamyardgrass; [1]
  Plant response rating, Barnyardgrass: 2
bamyardgrass; [2]
  Barnyardgrass plant response rating: 2
bamyardgrass; Rate 250 g/ha, Postemergence (flood test species), scale of 0 to 10 where 0 is no effect and 10 is complete control
  Plant response rating, Barnyardgrass: 3
bamyardgrass; [3]
  Plant response rating, Barnyardgrass: 7
velvetleaf; [4]
  Plant response rating, Velvetleaf: 2
velvetleaf; [5]
  Plant response rating, Velvetleaf: 3
velvetleaf; Preemergence, Rate 125 g/ha
  Velvetleaf plant response rating (0 to 10 scale): 3
velvetleaf; Preemergence, Rate 250 g/ha
  Velvetleaf plant response rating: 7
velvetleaf; Preemergence, Rate 500 g/ha
  Velvetleaf plant response rating: 7
velvetleaf; Rate 62 g/ha, Postemergence
  Velvetleaf plant response rating: 2
velvetleaf; [6]
  Plant response rating, Velvetleaf: 6
wheat; [4]
  Plant response rating, Wheat: 3
wheat; [5]
  Plant response rating, Wheat: 0
wheat; Preemergence, Rate 125 g/ha
  Wheat plant response rating (0 to 10 scale): 0
wheat; Preemergence, Rate 250 g/ha
  Wheat plant response rating: 0
wheat; Preemergence, Rate 500 g/ha
  Wheat plant response rating: 0
wheat; Rate 62 g/ha, Postemergence
  Wheat plant response rating: 2
wheat; [6]
  Plant response rating, Wheat: 4
Purple nutsedge; [4]
  Plant response rating, Nutsedge: 0
Purple nutsedge; [5]
  Plant response rating, Nutsedge: 0
Purple nutsedge; Preemergence, Rate 125 g/ha
  Nutsedge plant response rating (0 to 10 scale): 0
Purple nutsedge; Preemergence, Rate 250 g/ha
  Nutsedge plant response rating: 0
Purple nutsedge; Preemergence, Rate 500 g/ha
  Nutsedge plant response rating: 0
Purple nutsedge; Rate 62 g/ha, Postemergence
  Nutsedge plant response rating: 0
Purple nutsedge; [6]
  Plant response rating, Nutsedge: 6
blackgrass; [4]
  Plant response rating, Blackgrass: 3
blackgrass; [5]
  Plant response rating, Blackgrass: 4
blackgrass; Preemergence, Rate 125 g/ha
  Blackgrass plant response rating (0 to 10 scale): 6
blackgrass; [7]
  Blackgrass plant response rating: 9
blackgrass; [8]
  Blackgrass plant response rating: 9
blackgrass; [9]
  Blackgrass plant response rating: 2
blackgrass; [10]
  Plant response rating, Blackgrass: 6
blackgrass; [6]
  Plant response rating, Blackgrass: 7
rape; [4]
  Plant response rating, Rape: 0
rape; [5]
  Plant response rating, Rape: 0
rape; Preemergence, Rate 125 g/ha
  Rape plant response rating (0 to 10 scale): 0
rape; Preemergence, Rate 250 g/ha
  Rape plant response rating: 2
rape; Preemergence, Rate 500 g/ha
  Rape plant response rating: 7
rape; Rate 62 g/ha, Postemergence
  Rape plant response rating: 0
rape; [6]
  Plant response rating, Rape: 5
Sugar beet; [4]
  Plant response rating, Sugarbeets: 0
Sugar beet; [5]
  Plant response rating, Sugarbeets: 0
Sugar beet; Preemergence, Rate 125 g/ha
  Sugarbeets plant response rating (0 to 10 scale): 0
Sugar beet; Preemergence, Rate 250 g/ha
  Sugarbeets plant response rating: 3
Sugar beet; Preemergence, Rate 500 g/ha
  Sugarbeets plant response rating: 6
Sugar beet; Rate 62 g/ha, Postemergence
  Sugarbeets plant response rating: 0
Sugar beet; [6]
  Plant response rating, Sugarbeets: 3
soybean; [4]
  Plant response rating, Soybean: 2
soybean; [5]
  Plant response rating, Soybean: 0
soybean; Preemergence, Rate 125 g/ha
  Soybean plant response rating (0 to 10 scale): 0
soybean; Preemergence, Rate 250 g/ha
  Soybean plant response rating: 0
soybean; Preemergence, Rate 500 g/ha
  Soybean plant response rating: 0
soybean; Rate 62 g/ha, Postemergence
  Soybean plant response rating: 1
soybean; [6]
  Plant response rating, Soybean: 4
pigweed; [4]
  Plant response rating, Redroot pigweed: 0
pigweed; [5]
  Plant response rating, Redroot pigweed: 0
pigweed; Preemergence, Rate 125 g/ha
  Redroot pigweed plant response rating (0 to 10 scale): 0
pigweed; Preemergence, Rate 250 g/ha
  Redroot pigweed plant response rating: 10
pigweed; Preemergence, Rate 500 g/ha
  Redroot pigweed plant response rating: 10
pigweed; Rate 62 g/ha, Postemergence
  Redroot pigweed plant response rating: 0
pigweed; [6]
  Plant response rating, Redroot pigweed: 5
cocklebur; [4]
  Plant response rating, Cocklebur: 0
cocklebur; [5]
  Plant response rating, Cocklebur: 0
cocklebur; Preemergence, Rate 125 g/ha
  Cocklebur plant response rating (0 to 10 scale): 0
cocklebur; Preemergence, Rate 250 g/ha
  Cocklebur plant response rating: 0
cocklebur; Preemergence, Rate 500 g/ha
  Cocklebur plant response rating: 0
cocklebur; Rate 62 g/ha, Postemergence
  Cocklebur plant response rating: 0
cocklebur; [6]
  Plant response rating, Cocklebur: 2
bedstraw; Rate 125 g/ha, scale 0 to 10, 0 is no effect, 10 is complete control
  Plant response rating, Bedstraw: 2
bedstraw; [8]
  Bedstraw plant response rating: 9
bedstraw; Rate 250 g/ha, scale of 0 to 10 where 0 is no effect and 10 is complete control
  Plant response rating, Bedstraw: 4
bedstraw; Rate 500 g/ha, scale 0 to 10, 0 no effect, 10 complete control
  Plant response rating, Bedstraw: 7
Wild oat; [4]
  Plant response rating, Wild oats: 3
Wild oat; [5]
  Plant response rating, Wild oats: 3
Wild oat; Preemergence, Rate 125 g/ha
  Wild oats plant response rating (0 to 10 scale): 4
Wild oat; Preemergence, Rate 250 g/ha
  Wild oats plant response rating: 8
Wild oat; Preemergence, Rate 500 g/ha
  Wild oats plant response rating: 10
Wild oat; Rate 62 g/ha, Postemergence
  Wild oats plant response rating: 2
Wild oat; [6]
  Plant response rating, Wild oats: 7
Smallflower flatsedge; [1]
  Plant response rating, S. Flatsedge: 6
Smallflower flatsedge; [2]
  S. Flatsedge plant response rating: 4
Smallflower flatsedge; [3]
  Plant response rating, S. Flatsedge: 7
corn; [4]
  Plant response rating, Corn: 0
corn; [5]
  Plant response rating, Corn: 0
corn; Preemergence, Rate 125 g/ha
  Corn plant response rating (0 to 10 scale): 2
corn; Preemergence, Rate 250 g/ha
  Corn plant response rating: 2
corn; Preemergence, Rate 500 g/ha
  Corn plant response rating: 9
corn; Rate 62 g/ha, Postemergence
  Corn plant response rating: 0
corn; [6]
  Plant response rating, Corn: 3
crabgrass; [4]
  Plant response rating, Crabgrass: 2
crabgrass; [5]
  Plant response rating, Crabgrass: 7
crabgrass; Preemergence, Rate 125 g/ha
  Crabgrass plant response rating (0 to 10 scale): 7
crabgrass; Preemergence, Rate 250 g/ha
  Crabgrass plant response rating: 10
crabgrass; Preemergence, Rate 500 g/ha
  Crabgrass plant response rating: 10
crabgrass; Rate 62 g/ha, Postemergence
  Crabgrass plant response rating: 1
crabgrass; [6]
  Plant response rating, Crabgrass: 6
Surinam grass; [4]
  Plant response rating, B. signalgrass: 1
Surinam grass; Preemergence, Rate 125 g/ha
  B. signalgrass plant response rating (0 to 10 scale, 0 is no effect, 10 is complete control): 3
Surinam grass; [7]
  B. signalgrass plant response rating: 5
Surinam grass; [8]
  B. signalgrass plant response rating: 7
Surinam grass; [9]
  B. signalgrass plant response rating: 0
Surinam grass; [10]
  Plant response rating, B. signalgrass: 4
Surinam grass; [6]
  Plant response rating, B. signalgrass: 7

Reference: US6737383B1, “Herbicidal oxadiazolidines” (priority 1999, dated 2004)
